Assay results reported in BindingDB's records for doi:10.1111/j.1747-0285.2010.01011.x (University of Mainz, 2010).

target: 5-hydroxytryptamine receptor 2A (Homo sapiens, UniProt P28223); test: Competition Binding Assay; conditions: pH 7.4; 37 °C
Method: 5-HT-2A receptor affinity was determined by a radioligand competition binding assay with GF-62 cells, a clonal cell line expressing high amounts of 5-HT-2A receptors.

Chain of 5-hydroxytryptamine receptor 2A (P28223 whole entry): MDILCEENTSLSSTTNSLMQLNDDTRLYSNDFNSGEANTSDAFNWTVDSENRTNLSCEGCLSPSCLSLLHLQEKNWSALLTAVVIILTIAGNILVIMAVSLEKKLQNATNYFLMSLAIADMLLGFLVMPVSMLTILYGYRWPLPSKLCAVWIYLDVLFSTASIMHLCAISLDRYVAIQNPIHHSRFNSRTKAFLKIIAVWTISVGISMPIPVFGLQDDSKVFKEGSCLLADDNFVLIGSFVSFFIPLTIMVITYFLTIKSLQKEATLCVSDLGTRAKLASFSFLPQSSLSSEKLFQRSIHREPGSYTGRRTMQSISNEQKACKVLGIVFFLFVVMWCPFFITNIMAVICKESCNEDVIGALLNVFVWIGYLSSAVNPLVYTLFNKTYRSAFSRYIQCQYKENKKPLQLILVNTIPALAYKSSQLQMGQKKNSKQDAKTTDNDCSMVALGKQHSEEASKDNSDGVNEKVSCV

Structure (SMILES) | Ki [µM]
COc1c(OCCF)cccc1C(O)C1CCN(CCn2c(=S)[nH]c3ccccc3c2=O)CC1 (centres undefined) [3-[2-(4-{[3-(2-fluoroethoxy)-2-methoxyphenyl](hydroxy)methyl}piperidin-1-yl)ethyl]-2-sulfanylidene-1,2,3,4-tetrahydroquinazolin-4-one, 4c] | 0.356
COc1c(OCCF)cccc1/C(=N/OCCN(C)C)C1CCN(CCc2ccc(F)cc2)CC1 [(E)-[2-(dimethylamino)ethoxy]({[3-(2-fluoroethoxy)-2-methoxyphenyl]({1-[2-(4-fluorophenyl)ethyl]piperidin-4-yl})methylidene})amine, 8] | 0.057
COc1cccc(C(=O)C2CCN(CCn3c(=S)[nH]c4ccccc4c3=O)CC2)c1OC [3-(2-{4-[(2,3-dimethoxyphenyl)carbonyl]piperidin-1-yl}ethyl)-2-sulfanylidene-1,2,3,4-tetrahydroquinazolin-4-one, 4a] | 0.411
COc1cccc(C(O)C2CCN(CCn3c(=S)[nH]c4ccccc4c3=O)CC2)c1OC (centres undefined) [3-(2-{4-[(2,3-dimethoxyphenyl)(hydroxy)methyl]piperidin-1-yl}ethyl)-2-sulfanylidene-1,2,3,4-tetrahydroquinazolin-4-one, 4b] | 0.39
